From US20120277211A1, “METHODS AND COMPOSITIONS FOR THE TREATMENT OF PSYCHOTIC DISORDERS THROUGH THE IDENTIFICATION OF THE SULT4A1-1 HAPLOTYPE” (priority 2009, published 2012)
Marks after values point to notes of the source that are not given here.

Tests used:
[1] = system: Caucasian schizophrenia patients; assay: CATIE Phase I: change in total PANSS (LOCF) by SULT4A1-1 haplotype status, Caucasians; type: in vivo, human; conditions: for Number of individuals with change in total PANSS ≦−20% (responders) / Number of individuals with change in total PANSS ≧−20% (non-responders) / Responders: CATIE Caucasians, LOCF; for Responders: change in PANSS ≦−20%; for Effect size: olanzapine SULT4A1-1+ vs comparator group / Mean difference (95% CI) in delta PANSS: olanzapine SULT4A1-1+ minus comparator group: comparator = labelled drug in SULT4A1-1+ patients
Excerpt: There are several different metrics for quantifying response in clinical trials of antipsychotic medications. The most commonly used psychometric instrument is the Positive and Negative Syndrome Scale (PANSS), a 30-item semi-quantitative instrument scored by clinical professionals (Kay et al., 1987). The greater the decrease in PANSS score, the better the clinical response. The most direct measure of clinical response is absolute change in PANSS score. In addition to absolute change, the improvement is often reported as a percentage change from baseline PANSS score.
A decrease of at least 20% in total PANSS is one commonly used threshold for response (Leucht et al., 2009).
The design of the CATIE study has been described in detail by others (Lieberman et al., 2005; Stroup et al., 2003). […] A total of 738 subjects consented to provide DNA for genetic study. […] Retrospective genetic analyses, judged to be exempt from human studies requirements by an IRB, were conducted in the current study.
All tested patients were studied using well established clinical endpoints comparing baseline, intermediate, and last observation carried forward (LOCF) for the PANSS scores using CATIE data. LOCF analysis is a commonly used clinical endpoint for clinical trials for neuropsychiatric drugs, with changes in PANSS scores of between negative 20% and negative 30% used as typical endpoints to indicate clinically significant response (Leucht et al., 2009). To remove time on drug as a variable for the CATIE trial, analysis was limited to only those patients who were randomized to a different drug following the initial washout period (drug switchers).
The CATIE clinical data set included baseline PANSS scores based on clinical assessments prior to initiation of the assigned therapy, but following the washout period for any patients previously on antipsychotic medication. Follow up PANSS data for the CATIE trial were collected at each visit as described in detail by others (Stroup et al., 2003).
Since follow-up on subjects was not done at uniform time intervals, analysis was done using the last observation for each patient in treatment Phase I of the trial as the measure of response (last observation carried forward, LOCF). Main effect and interaction terms between the SULT4A1-1 haplotype and drug therapy were included in the linear model. A pre-determined set of contrasts for differences in percent change PANSS by haplotype within each drug therapy (three comparisons) and by drug therapy within each haplotype (six comparisons) were evaluated, with adjustment for multiple-comparisons using the step-up false-discovery rate (FDR) controlling procedure (Benjamini and Hochberg, 1995). A sub-analysis omitting those patients who were randomized to the same antipsychotic drug therapy was also conducted.

[2] = system: African American schizophrenia patients; assay: CATIE: change in total PANSS (LOCF) by SULT4A1-1 haplotype status, African Americans; type: in vivo, human; conditions: for Number of individuals with change in total PANSS ≦−20% (responders) / Number of individuals with change in total PANSS ≧−20% (non-responders): LOCF
Description: The design of the CATIE study has been described in detail by others (Lieberman et al., 2005; Stroup et al., 2003). […] A total of 738 subjects consented to provide DNA for genetic study. […] Retrospective genetic analyses, judged to be exempt from human studies requirements by an IRB, were conducted in the current study. All tested patients were studied using well established clinical endpoints comparing baseline, intermediate, and last observation carried forward (LOCF) for the PANSS scores using CATIE data. […] To remove time on drug as a variable for the CATIE trial, analysis was limited to only those patients who were randomized to a different drug following the initial washout period (drug switchers).

[3] = system: Caucasian schizophrenia patients; assay: CATIE: time to discontinuation for all causes by SULT4A1-1 status; type: in vivo, human
Excerpt: The primary endpoint for the CATIE study was time to discontinuation for all causes (Lieberman et al., 2005). Thus the inventors evaluated the effect of SULT41-1 status on this important parameter.

schizophrenia patients = assay: CATIE: months of successful treatment measured by the CGI scale (TMSUCC1); type: in vivo, human
Excerpt: The CATIE clinical data set included Clinical Global Impression (CGI) Scale, an observer-provided assessment of the psychiatric health of the patient (Stroup et al., 2003; Guy 1976). Patients are rated with the CGI Scale from 1 to 7, with higher scores indicating greater severity of illness. The CATIE study provided a response variable that measured the time (in months) of successful treatment as measured by the CGI scale (“TMSUCC1” in the CATIE data).

[4] = system: Caucasian schizophrenia patients; assay: CATIE: hospitalization due to exacerbation of psychosis by SULT4A1-1 status; type: in vivo, human
Excerpt: To assess if SULT4A1-1 status impacts the risk of hospitalization in Caucasians, the inventors assigned SULT4A1-1 status to each CATIE subject and evaluated hospitalization events due to exacerbation of psychosis. For this analysis, the inventors assigned a dichotomous value (positive or negative) for hospitalization status to subjects in each phase of the trial based on only the first hospitalization event for a given patient in that phase. Patients participating in Phases 1, 2, and/or 3 were included in the totals for the appropriate drug.
A Kaplan-Meier survival analysis was performed to determine whether there was a difference between the survival (hospitalization) rates for the SULT4A1-1 negative and SULT4A1-1 positive patient populations treated with each of the atypical antipsychotics. Survival plots model the fraction of the population that survived (i.e., no hospitalization event) as a function of time.

[5] = system: unsegmented patient populations; conditions: cited from earlier work
[6] = SULT4A1-1 positive, randomized to a different drug
[7] = Unsegmented, Phases 1, 2 and/or 3, first event

Structure (SMILES): O=C1Cc2cc(CCN3CCN(c4nsc5ccccc45)CC3)c(Cl)cc2N1 [Ziprasidone]
- Mean difference in total PANSS score between olanzapine and labelled drug, CATIE SULT4A1-1+ ([1]; SULT4A1-1+): −17.9
- DELTA PANSS % (mean change in PANSS score from baseline to LOCF) ([1]; SULT4A1-1 negative): −4*** %
- Number of individuals with change in total PANSS ≦−20% (responders) ([1]; SULT4A1-1 negative): 6
- Number of individuals with change in total PANSS ≧−20% (non-responders) ([1]; SULT4A1-1 negative): 32
- Responders ([1]; SULT4A1-1 negative): 15.7%**
- DELTA PANSS % (mean change in PANSS score from baseline to LOCF) ([1]; SULT4A1-1 positive): −8* %
- Number of individuals with change in total PANSS ≧−20% (non-responders) ([1]; SULT4A1-1 positive): 7
- Number of individuals with change in total PANSS ≦−20% (responders) [1, 6]: 3
- Responders ([1]; SULT4A1-1 positive): 30.0%
- Mean difference in total PANSS score between olanzapine and labelled drug, CATIE SULT4A1-1− ([1]; SULT4A1-1−): −2.1
- Mean difference in total PANSS score between olanzapine and labelled drug, CATIE unsegmented ([1]; Unsegmented): −4.9
- Effect size: olanzapine SULT4A1-1+ vs comparator group [1]: 0.77
- Mean difference (95% CI) in delta PANSS: olanzapine SULT4A1-1+ minus comparator group [1]: −16.1 (−32.7 to 0.5)
- Effect Size attributable to SULT4A1-1 status in CATIE ([1]; olanzapine-treated SULT4A1-1 positive versus labelled drug-treated SULT4A1-1 positive): −0.77^b
- Responders ([2]; SULT4A1-1 negative): 15.4%
- Number of individuals with change in total PANSS ≦−20% (responders) ([2]; SULT4A1-1 negative): 4
- Number of individuals with change in total PANSS ≧−20% (non-responders) ([2]; SULT4A1-1 negative): 22
- Responders ([2]; SULT4A1-1 positive): 0%
- Number of individuals with change in total PANSS ≦−20% (responders) ([2]; SULT4A1-1 positive): 0
- Number of individuals with change in total PANSS ≧−20% (non-responders) ([2]; SULT4A1-1 positive): 3
- Time to discontinuation, mean ([3]; SULT4A1-1 negative): 8.2*** Months
- Time to discontinuation, mean ([3]; SULT4A1-1 positive): 11.7 Months
- Length of successful treatment (CGI Months), Mean (schizophrenia patients; SULT4A1-1 negative): 4.51 Months
- Length of successful treatment (CGI Months), Mean (schizophrenia patients; SULT4A1-1 positive): 8.36^d Months
- Length of successful treatment (CGI Months), Mean (schizophrenia patients; Unsegmented): 5.36 Months
- HOSP, number of patients hospitalized ([4]; SULT4A1-1 negative): 11
- HOSP, rate of hospitalization ([4]; SULT4A1-1 negative): 13.4%
- HOSP, number of patients hospitalized ([4]; SULT4A1-1 positive): 2
- HOSP, rate of hospitalization ([4]; SULT4A1-1 positive): 7.1%
- HOSP, rate of hospitalization ([4]; Unsegmented): 11.8%
- HOSP, number of patients hospitalized [4, 7]: 13
- Kaplan-Meier: difference between survival (no hospitalization) rates of SULT4A1-1 negative and positive patients ([4]; per drug): not statistically significant
- Effect Size vs. FGA ([5]; first generation antipsychotics, Davis et al. (2003)): −0.04
- Effect Size vs. Placebo ([5]; meta-analysis, Leucht et al. (2009), negative = greater reduction in PANSS): −0.48
- Mean difference in total PANSS score between olanzapine and labelled drug, Meta-analysis ([5]; unsegmented populations, Leucht et al. (2009)): −8.3

Structure (SMILES): OCCN1CCN(CCCN2c3ccccc3Sc3ccc(Cl)cc32)CC1 [Perphenazine]
- DELTA PANSS % (mean change in PANSS score from baseline to LOCF) ([1]; SULT4A1-1 negative): −3*** %
- Number of individuals with change in total PANSS ≦−20% (responders) ([1]; SULT4A1-1 negative): 16
- Number of individuals with change in total PANSS ≧−20% (non-responders) ([1]; SULT4A1-1 negative): 47
- Responders ([1]; SULT4A1-1 negative): 25.4%**
- DELTA PANSS % (mean change in PANSS score from baseline to LOCF) ([1]; SULT4A1-1 positive): −10* %
- Number of individuals with change in total PANSS ≧−20% (non-responders) ([1]; SULT4A1-1 positive): 9
- Number of individuals with change in total PANSS ≦−20% (responders) [1, 6]: 5
- Responders ([1]; SULT4A1-1 positive): 35.7%
- Effect size: olanzapine SULT4A1-1+ vs comparator group [1]: 0.68
- Mean difference (95% CI) in delta PANSS: olanzapine SULT4A1-1+ minus comparator group [1]: −14.2 (−29.8 to 1.4)
- Responders ([2]; SULT4A1-1 negative): 27.0%
- Number of individuals with change in total PANSS ≦−20% (responders) ([2]; SULT4A1-1 negative): 10
- Number of individuals with change in total PANSS ≧−20% (non-responders) ([2]; SULT4A1-1 negative): 27
- Responders ([2]; SULT4A1-1 positive): 0%
- Number of individuals with change in total PANSS ≦−20% (responders) ([2]; SULT4A1-1 positive): 0
- Number of individuals with change in total PANSS ≧−20% (non-responders) ([2]; SULT4A1-1 positive): 2
- Time to discontinuation, mean ([3]; SULT4A1-1 negative): 10.6* Months
- Time to discontinuation, mean ([3]; SULT4A1-1 positive): 7.6** Months
- Length of successful treatment (CGI Months), Mean (schizophrenia patients; SULT4A1-1 negative): 7.03 Months
- Length of successful treatment (CGI Months), Mean (schizophrenia patients; SULT4A1-1 positive): 5.29 Months
- Length of successful treatment (CGI Months), Mean (schizophrenia patients; Unsegmented): 6.72 Months
- HOSP, number of patients hospitalized ([4]; SULT4A1-1 negative): 9
- HOSP, rate of hospitalization ([4]; SULT4A1-1 negative): 13.4%
- HOSP, number of patients hospitalized ([4]; SULT4A1-1 positive): 1
- HOSP, rate of hospitalization ([4]; SULT4A1-1 positive): 7.1%
- HOSP, rate of hospitalization ([4]; Unsegmented): 12.3%
- HOSP, number of patients hospitalized [4, 7]: 10
